Legend:
[1] = 101 kPa, Liquid, Vibrating tube method
[2] = xn = mol fraction of the nth substance listed; conditions: 101 kPa, Liquid, Vibrating tube method, x2 = 0

NCCN [ethane-1,2-diamine]
[1]
Conditions	mass density [kg/m3]
288.15 K	901.26
298.15 K	891.9
308.15 K	882.49
323.15 K	868.23
333.15 K	858.6

O [water]
[1]
Conditions	mass density [kg/m3]
274.15 K	999.899
275.15 K	999.94
276.15 K	999.964
277.15 K	999.972
278.15 K	999.964
279.15 K	999.94
280.15 K	999.901
281.15 K	999.848
282.15 K	999.781
283.15 K	999.699
323.15 K	988.03
333.15 K	983.191

O [water] + NCCN
[2]
Conditions	mass density [kg/m3]
274.15 K	999.899
275.15 K	999.94
276.15 K	999.964
277.15 K	999.972
278.15 K	999.964
279.15 K	999.94
280.15 K	999.901
281.15 K	999.848
282.15 K	999.781
283.15 K	999.699
323.15 K	988.03
333.15 K	983.191
